# Measurements reported in the supplement of paper PMC10307832.
# Tests used:
# Assay in all cases: relative viability (nuclei count vs DMSO), 5 days (fraction); higher = more cells survive
# NCI-H2228 = test system: NCI-H2228
# How it was run: (§1)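 Lung cancer cell lines were seeded in 1536-well plates and dosed by pin tool the next day, with either a single drug or a fixed anchor-drug dose combined with five library-drug doses (not always all listed) spaced in √10 steps. Five days later, one step fixed the cells and stained their nuclei (final 0.05% Triton X-100, 1% formaldehyde, 1 ug/ml Hoechst), and nuclei were counted on 4× images. Relative viability is the nuclei count in treated wells divided by the count in vehicle wells, and each value is the median of duplicate plates.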
# NCI-H727 = test system: NCI-H727
# How it was run: as §1
# LK-2 = test system: LK-2
# How it was run: as §1
# NCI-H1792 = test system: NCI-H1792
# How it was run: as §1
# EMC-BAC-2 = test system: EMC-BAC-2
# How it was run: as §1
# LXF-289 = test system: LXF-289
# How it was run: as §1
# COR-L23 = test system: COR-L23
# How it was run: as §1
# NCI-H1793 = test system: NCI-H1793
# How it was run: as §1
# A-427 = test system: A-427
# How it was run: as §1
# NCI-H2009 = test system: NCI-H2009
# How it was run: as §1
# HARA = test system: HARA
# How it was run: as §1
# NCI-H3122 = test system: NCI-H3122
# How it was run: as §1
# NCI-H2170 = test system: NCI-H2170
# How it was run: as §1
# NCI-H596 = test system: NCI-H596
# How it was run: as §1
# SW 900 = test system: SW 900
# How it was run: as §1
# SK-MES-1 = test system: SK-MES-1
# How it was run: as §1
# PC-3 [JPC-3] = test system: PC-3 [JPC-3]
# How it was run: as §1
# SW 1573 = test system: SW 1573
# How it was run: as §1
# NCI-H1993 = test system: NCI-H1993
# How it was run: as §1
# SK-LU-1 = test system: SK-LU-1
# How it was run: as §1
# NCI-H1944 = test system: NCI-H1944
# How it was run: as §1
# HOP-62 = test system: HOP-62
# How it was run: as §1
structure (smiles),measurement,setting,value
CC1(C)CCC(c2ccc(Cl)cc2)=C(CN2CCN(c3ccc(C(=O)NS(=O)(=O)c4ccc(N[C@H](CCN5CCOCC5)CSc5ccccc5)c(S(=O)(=O)C(F)(F)F)c4)cc3)CC2)C1 [Navitoclax] + CC(=O)Nc1cccc(-n2c(=O)n(C3CC3)c(=O)c3c(Nc4ccc(I)cc4F)n(C)c(=O)c(C)c32)c1 [Trametinib] (partner 0.02 µM),relative viability,NCI-H2228; first compound 0.005 µM,0.476
same,relative viability,NCI-H2228; first compound 0.01581 µM,0.802
same,relative viability,NCI-H2228; first compound 0.1581 µM,0.511
same,relative viability,NCI-H2228; first compound 0.5 µM,0.491
same,relative viability,NCI-H727; first compound 0.005 µM,0.406
same,relative viability,NCI-H727; first compound 0.01581 µM,0.393
same,relative viability,NCI-H727; first compound 0.05 µM,0.378
same,relative viability,NCI-H727; first compound 0.1581 µM,0.399
same,relative viability,NCI-H727; first compound 0.5 µM,0.403
same,relative viability,LK-2; first compound 0.005 µM,0.76
same,relative viability,LK-2; first compound 0.01581 µM,0.868
same,relative viability,LK-2; first compound 0.05 µM,0.922
same,relative viability,LK-2; first compound 0.1581 µM,0.807
same,relative viability,LK-2; first compound 0.5 µM,0.695
same,relative viability,NCI-H1792; first compound 0.005 µM,0.458
same,relative viability,NCI-H1792; first compound 0.01581 µM,0.631
same,relative viability,NCI-H1792; first compound 0.1581 µM,0.376
same,relative viability,NCI-H1792; first compound 0.5 µM,0.388
same,relative viability,EMC-BAC-2; first compound 0.005 µM,0.728
same,relative viability,EMC-BAC-2; first compound 0.01581 µM,0.87
same,relative viability,EMC-BAC-2; first compound 0.05 µM,0.866
same,relative viability,EMC-BAC-2; first compound 0.1581 µM,0.848
same,relative viability,EMC-BAC-2; first compound 0.5 µM,0.806
same,relative viability,LXF-289; first compound 0.005 µM,0.649
same,relative viability,LXF-289; first compound 0.01581 µM,0.709
same,relative viability,LXF-289; first compound 0.05 µM,0.633
same,relative viability,LXF-289; first compound 0.1581 µM,0.69
same,relative viability,LXF-289; first compound 0.5 µM,0.692
same,relative viability,COR-L23; first compound 0.005 µM,0.6
same,relative viability,COR-L23; first compound 0.01581 µM,0.601
same,relative viability,COR-L23; first compound 0.05 µM,0.514
same,relative viability,COR-L23; first compound 0.1581 µM,0.577
same,relative viability,COR-L23; first compound 0.5 µM,0.61
same,relative viability,NCI-H1793; first compound 0.005 µM,0.373
same,relative viability,NCI-H1793; first compound 0.01581 µM,0.439
same,relative viability,NCI-H1793; first compound 0.1581 µM,0.467
same,relative viability,NCI-H1793; first compound 0.5 µM,0.402
same,relative viability,A-427; first compound 0.005 µM,0.724
same,relative viability,A-427; first compound 0.01581 µM,0.714
same,relative viability,A-427; first compound 0.05 µM,0.624
same,relative viability,A-427; first compound 0.1581 µM,0.599
same,relative viability,A-427; first compound 0.5 µM,0.652
same,relative viability,NCI-H2009; first compound 0.005 µM,0.324
same,relative viability,NCI-H2009; first compound 0.01581 µM,0.355
same,relative viability,NCI-H2009; first compound 0.05 µM,0.322
same,relative viability,NCI-H2009; first compound 0.1581 µM,0.303
same,relative viability,NCI-H2009; first compound 0.5 µM,0.308
same,relative viability,HARA; first compound 0.005 µM,0.44
same,relative viability,HARA; first compound 0.01581 µM,0.638
same,relative viability,HARA; first compound 0.05 µM,0.917
same,relative viability,HARA; first compound 0.1581 µM,0.587
same,relative viability,HARA; first compound 0.5 µM,1.06
same,relative viability,NCI-H3122; first compound 0.005 µM,0.243
same,relative viability,NCI-H3122; first compound 0.01581 µM,0.221
same,relative viability,NCI-H3122; first compound 0.05 µM,0.217
same,relative viability,NCI-H3122; first compound 0.1581 µM,0.222
same,relative viability,NCI-H3122; first compound 0.5 µM,0.211
same,relative viability,NCI-H2170; first compound 0.005 µM,0.926
same,relative viability,NCI-H2170; first compound 0.01581 µM,0.984
same,relative viability,NCI-H2170; first compound 0.05 µM,0.892
same,relative viability,NCI-H2170; first compound 0.1581 µM,0.887
same,relative viability,NCI-H2170; first compound 0.5 µM,0.874
same,relative viability,NCI-H596; first compound 0.005 µM,0.796
same,relative viability,NCI-H596; first compound 0.01581 µM,1.22
same,relative viability,NCI-H596; first compound 0.05 µM,0.693
same,relative viability,NCI-H596; first compound 0.1581 µM,0.79
same,relative viability,NCI-H596; first compound 0.5 µM,0.776
same,relative viability,SW 900; first compound 0.005 µM,0.706
same,relative viability,SW 900; first compound 0.01581 µM,0.981
same,relative viability,SW 900; first compound 0.1581 µM,0.828
same,relative viability,SW 900; first compound 0.5 µM,0.81
same,relative viability,SK-MES-1; first compound 0.005 µM,0.516
same,relative viability,SK-MES-1; first compound 0.01581 µM,0.681
same,relative viability,SK-MES-1; first compound 0.05 µM,0.547
same,relative viability,SK-MES-1; first compound 0.1581 µM,0.591
same,relative viability,SK-MES-1; first compound 0.5 µM,0.654
same,relative viability,PC-3 [JPC-3]; first compound 0.005 µM,0.674
same,relative viability,PC-3 [JPC-3]; first compound 0.01581 µM,0.714
same,relative viability,PC-3 [JPC-3]; first compound 0.05 µM,0.734
same,relative viability,PC-3 [JPC-3]; first compound 0.1581 µM,0.668
same,relative viability,PC-3 [JPC-3]; first compound 0.5 µM,0.603
same,relative viability,SW 1573; first compound 0.005 µM,0.623
same,relative viability,SW 1573; first compound 0.01581 µM,0.5
same,relative viability,SW 1573; first compound 0.05 µM,0.654
same,relative viability,SW 1573; first compound 0.1581 µM,0.475
same,relative viability,SW 1573; first compound 0.5 µM,0.474
same,relative viability,NCI-H1993; first compound 0.005 µM,0.521
same,relative viability,NCI-H1993; first compound 0.01581 µM,0.513
same,relative viability,NCI-H1993; first compound 0.05 µM,0.508
same,relative viability,NCI-H1993; first compound 0.1581 µM,0.454
same,relative viability,NCI-H1993; first compound 0.5 µM,0.642
same,relative viability,SK-LU-1; first compound 0.005 µM,0.716
same,relative viability,SK-LU-1; first compound 0.01581 µM,0.57
same,relative viability,SK-LU-1; first compound 0.05 µM,0.296
same,relative viability,SK-LU-1; first compound 0.1581 µM,0.601
same,relative viability,SK-LU-1; first compound 0.5 µM,0.433
same,relative viability,NCI-H1944; first compound 0.005 µM,0.414
same,relative viability,NCI-H1944; first compound 0.01581 µM,0.407
same,relative viability,NCI-H1944; first compound 0.1581 µM,0.422
same,relative viability,NCI-H1944; first compound 0.5 µM,0.373
same,relative viability,HOP-62; first compound 0.005 µM,0.377
same,relative viability,HOP-62; first compound 0.01581 µM,0.404
same,relative viability,HOP-62; first compound 0.05 µM,0.362
same,relative viability,HOP-62; first compound 0.1581 µM,0.365
same,relative viability,HOP-62; first compound 0.5 µM,0.39
